Data from patent publication US9815833B2, “Pyridine derivative and medical use thereof” (Chengdu Easton Biopharmaceuticals Co., Ltd., priority 2013, dated 2017).

How the values were obtained:
[1] = Pharmacokinetic studies on healthy rats; assay type: in vivo; details: male, rat, po, SD rats, 10 mg/kg i.g., plasma; for AUC(0-t): read-out: AUC0-24
Description: SD rats were used as test animals, and LC/MS/MS method was applied for measuring the drug concentrations of rats at different time after administrating the compounds of the present invention by gavage, respectively. Pharmacokinetic behaviors of the compounds of the present invention on rats were studied, so as to evaluate the pharmacokinetic characteristics thereof.
(§1) SD rats, weighing 180-220 g, male, 40 rats, 5 rats in each group, provided by Chengdu Dashuo Biological Technology Co., Ltd.; Production facility license: SCXK (Chuan) 2008-24. Animals were housed in the animal room after purchased, adaptively observed for at least three days, and used for assays unless they were qualified for the quarantine standard.
3.1 Grouping: the rats were randomly grouped according to Table 3, with no significant difference among the groups;
Rats in each group was administrated by gavage with the corresponding investigational drugs according to Table 3, at 5 min, 10 min, 20 min, 30 min, 1 h, 2 h, 4 h, 6 h, 8 h, 10 h, 12 h, 24 h after administration, 0.5 ml of blood was taken into the vacuum blood-collection tubes containing heparin sodium, and centrifuged at 5,000 rpm to obtain plasma which was stored at −20° C.
50 μL plasma at each time after administration was taken, then 150 μL of acetonitrile was added, which was subjected to vortex at 1500 rpm for 2 minutes. Solution was centrifuged for 15 minutes (3500 r/min), after that 10 μL supernatant was analyzed by HPLC/MS/MS.
The pharmacokinetic behaviors of the investigational compounds were subjected to compartmental model fitting, and DAS 2.0 software was used to calculate the main pharmacokinetic parameters.

[2] = system: APTT of healthy mice; experiment: Effects on APTT of healthy mice; assay type: in vivo, KM mice; details: 5 mg/kg i.g.; for APTT (sec): KM mice, blood collected 1 hour after administration, x ± SD, 10 mice per group; for anticoagulant effect (APTT) compared with positive drug Apixaban: mice, 1 h after administration, same dose
Description: Test for four coagulation parameters (including prothrombin time (PT), activated partial thromboplastin time (APTT), thrombin time (TT) and fibrinogen (FIB)) belongs to one of clinical inspection items, and is necessary to thrombotic disease inspections or before the surgery. APTT mainly reflects whether the intrinsic coagulation system status is normal or not. Accordingly, the APTT value is used as a detection indicator in this test of the present invention. The anticoagulant effects of the compounds prepared in the Examples of the present invention were evaluated through the effects thereof on APTT of mice.
as §1, with “KM mice,” for “SD rats,”, “28-30” for “180-220”, “170 mice,” for “40 rats, 5 rats in each group,”
(1) Grouping: mice were grouped and tested according to Table 1, wherein there were 10 mice in each group.
Mice in each group were administrated with the corresponding investigational drugs (mice in control group were administrated with the normal saline). At 1 hour after administration, blood was collected into 0.5 ml vacuum blood-collection tube containing sodium citrate from mice orbit. APTT values of animals were measured after collecting the blood samples.
Excel was used for statistics, experimental data were expressed as (x±SD), and two-sided T-test method was used to statistically compare the experimental data among multiple groups.

[3] = biological target: human FXa (Homo sapiens, UniProt P00742); experiment: Human FXa inhibition assay (fluorogenic substrate); assay type: biochemical; details: human FXa 1 nM, substrate 106.7 μM, 30 minutes at room temperature, pH 8.0
Procedure: Inhibitory effects of the compounds of the present invention on human FXa were studied, to measure IC50 values thereof on human FXa.
human FXa enzyme (Sekisui Diagnostics, REF 526);
Fluorogenic substrate for the FXa assay (American diagnostic, Product No. 222F);
Buffer: 20 mM Tris-HCl, 200 mM NaCl, 2.5 mM CaCl2, pH 8.0.
(2) 10 mM of each compound was 5-fold diluted serially with buffer to different concentrations (from 40 μM to 0.00002048 μM);
(3) 6 μL of the above diluted solutions of Step (2) were added into each well of 384-well plate to make a final volume of 60 μL, and the final concentration of the compound ranged from 4 μM to […];
(4) 30 μL of human FXa enzyme (2 nM) was added into each well, with a final concentration of 1 nM;
(5) 24 μL human FXa fluorescent enzyme substrate (266.7 μM) was added into each well, with a final concentration of 106.7 μM;
(6) the plate was gently shaked for 5 minutes and then incubated for 30 minutes at room temperature, with avoidance from light;
(7) fluorescence signal was read at 360/440 nm, the inhibition percentage was measured, and 4 Parameter Logistic Model in Xlfit software was employed to calculate IC50.

Chain of human FXa (P00742 235-488 limits assumed): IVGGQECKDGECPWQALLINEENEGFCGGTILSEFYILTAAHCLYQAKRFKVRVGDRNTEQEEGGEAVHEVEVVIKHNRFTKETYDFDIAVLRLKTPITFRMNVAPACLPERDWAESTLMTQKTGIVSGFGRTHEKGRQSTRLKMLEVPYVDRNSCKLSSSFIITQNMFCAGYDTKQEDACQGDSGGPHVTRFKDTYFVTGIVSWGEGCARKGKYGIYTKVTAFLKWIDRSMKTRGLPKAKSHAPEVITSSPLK
Chain of human FXa (P00742 41-179 partner limits assumed): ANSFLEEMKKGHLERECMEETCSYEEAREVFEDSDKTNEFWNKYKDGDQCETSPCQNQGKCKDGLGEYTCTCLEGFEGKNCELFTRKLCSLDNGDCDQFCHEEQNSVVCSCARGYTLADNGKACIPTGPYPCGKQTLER

| Compound | Cmax [1] [ng/mL] | Tmax [1] [h] | half-life [1] [h] | AUC(0-t) [1] [ng·h/mL] | APTT (sec) [2] | anticoagulant effect (APTT) compared with positive drug Apixaban [2] | IC50 [3] [pM] |
| --- | --- | --- | --- | --- | --- | --- | --- |
| Cc1cc(N2CCc3c(C(N)=O)nn(-c4cc(F)cc(F)c4)c3C2=O)ccc1N1CCCC1=O [Example 17, 1-(3,5-difluoro-phenyl)-7-oxo-6-[3-methyl-4-(2-oxo-pyrrolidin-1-yl)phenyl]-4,5,6,7-tetrahydro-1H-pyrazolo[3,4-c]pyridine-3-carboxamide] | 9670 | 0.25 | 6.8 | 38600 | 30.79 ± 2.91 * * ^ΔΔ sec | significantly better than positive drug Apixaban | 15 |
| COc1ccc(-n2nc(C(N)=O)c3c2C(=O)N(c2ccc(N4CCCC4=O)c(C)c2)CC3)cc1 [Example 16, 1-(4-methoxyphenyl)-7-oxo-6-[3-methyl-4-(2-oxo-pyrrolidin-1-yl)phenyl]-4,5,6,7-tetrahydro-1H-pyrazolo[3,4-c]pyridine-3-carboxamide] | 9450 | 0.25 | 6.2 | 37700 | 29.89 ± 2.72 * * ^ΔΔ sec | significantly better than positive drug Apixaban | 23 |
